The source of these data is patent US20220306630A1, “AGONISTS OF ROR GAMMAt” (BRISTOL-MYERS SQUIBB COMPANY, priority 2019, published 2022).

The pEC50 is −log10 of the EC50, conventionally taken in molar units.

pEC50: −log10 of the molar value.

The assay concerns the target T1, RORgT (Homo sapiens, UniProt P51449).
T1 construct: Gal4 (fusion partner); expressed in transfected cells; host or cells: engineered Jurkat cells (Jurkat pEx/Gal/hRORγ CLBD/HYG pG5luc/blast)
T1 sequence (P51449 267-516): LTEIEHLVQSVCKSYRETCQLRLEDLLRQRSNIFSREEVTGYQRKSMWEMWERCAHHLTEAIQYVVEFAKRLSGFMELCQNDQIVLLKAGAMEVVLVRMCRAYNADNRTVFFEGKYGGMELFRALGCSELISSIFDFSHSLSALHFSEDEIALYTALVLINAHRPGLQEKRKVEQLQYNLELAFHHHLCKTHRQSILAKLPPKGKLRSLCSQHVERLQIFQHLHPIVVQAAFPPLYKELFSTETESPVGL
In words: RORgT Gal4 Luciferase Reporter Gene Assay. Type of assay: cell-based. As to conditions: engineered Jurkat cells overexpressing RORgT (LBD or full length) with Gal4 Luc reporter; 18 hours at 37° C.; 40 μM to 0.67 nM; read-out: RORg_GAL4 EC50. In short, it runs like this:
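Cells exposed to compound 18 hours at 37° C, then lysed for luciferase luminescence. Inhibition of constitutive activity expressed as percent reduction of signal window relative to a control compound.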
A general note: Reporter assays use an easily measured gene product as a stand-in for the process of interest.

As to `COc1ccc(Oc2c(Cl)cc(NC(=O)C3(c4cnccn4)CC3)cc2Cl)cc1C(C)C` [Example 346], the pEC50 was 6.09.

For the molecule `COc1ccc(Oc2c(Cl)cc(NC(=O)c3c[nH]c4ncncc34)cc2Cl)cc1C(C)C` [Example 347], the pEC50 is 5.74.

As to `COc1ccc(Oc2c(Cl)cc(NC(=O)C3(c4cccnc4)CCCCC3)cc2Cl)cc1C(C)C` [Example 348], the pEC50 is 6.43.

For the molecule `COc1ccc(Oc2c(Cl)cc(NC(=O)c3c[nH]c4ncccc34)cc2Cl)cc1C(C)C` [Example 349], the negative-log EC50 (pEC50) was 5.86.

For the molecule `COc1ccc(Oc2c(Cl)cc(N)cc2Cl)cc1C(C)C` [Example 350], the pEC50 is 5.69.

In the case of `CC(c1cc(F)cc(Oc2c(Cl)cc(NC(=O)CC3CCN(S(C)(=O)=O)CC3)cc2Cl)c1)C(F)(F)F` (stereo not shown) [Example 351], the pEC50 was 8.24.

`CC(c1cc(F)cc(Oc2c(Cl)cc(NC(=O)CC3CCN(S(C)(=O)=O)CC3)cc2Cl)c1)C(F)(F)F` (stereo not shown) [Example 352]: the pEC50 was 7.82.

As to `CC(c1cc(F)cc(Oc2c(Cl)cc(NC(=O)Cc3ccc(S(C)(=O)=O)cc3)cc2Cl)c1)C(F)(F)F` (stereo not shown) [Example 353], the negative logarithm of the EC50 (pEC50) is 7.85.

Turning to `CC(c1cc(F)cc(Oc2c(Cl)cc(NC(=O)Cc3ccc(S(C)(=O)=O)cc3)cc2Cl)c1)C(F)(F)F` (stereo not shown) [Example 354], the pEC50 was 8.46.

In the case of `CC(c1cc(F)cc(Oc2c(Cl)ccc(C(=O)NCc3ccc(S(N)(=O)=O)cc3)c2Cl)c1)C(F)(F)F` (stereo not shown) [Example 355], the pEC50 is 7.80.

With `CC(c1cc(F)cc(Oc2c(Cl)ccc(C(=O)NCc3ccc(S(N)(=O)=O)cc3)c2Cl)c1)C(F)(F)F` (stereo not shown) [Example 356], the pEC50 was 7.77.

In the case of `CC(c1cc(F)cc(Oc2c(Cl)ccc(C(=O)N3CCC4(CC3)CN(S(C)(=O)=O)C4)c2Cl)c1)C(F)(F)F` (stereo not shown) [Example 357], the negative-log EC50 (pEC50) was 7.96.

Consider `C=C(C)c1cc(F)cc(Oc2c(Cl)cc(NC(=O)CC3CCN(S(C)(=O)=O)CC3)cc2Cl)c1` [Example 358], for which the pEC50 is 8.18.
